No end group written: not given here.
What was measured:
human Bcl-XL = molecular target: T1, human Bcl-XL (Homo sapiens, UniProt Q07817, N52D/N66D); experiment: Isothermal titration calorimetry, binding of Beclin 1 BH3D-derived peptides to Bcl-XL; settings: ITC
T1 construct: The His6-tagged Bcl-XL (residues 1-208, N52D, N66D) were expressed in E. coli; His6 (C); made in house; host or cells: E. coli BL21(DE3)pLysS
From the text: (§1) Various Bcl-2 homologs lacking the C-terminal transmembrane helix were cloned and expressed to enable purification of soluble constructs identical to those used for previous structural studies. γHV68 M11 residues 1-136 was expressed and purified. The double mutant variant of Bcl-XL (N52D, N66D) was created by two rounds of site-directed mutagenesis using the QuikChange II Site-Directed Mutagenesis Kit (Agilent Technologies), then cloned, along with a C-terminal His6-tag for purification, into the NdeI and NotI restriction sites of pET 29b. The His6-tagged Bcl-XL (residues 1-208, N52D, N66D) were expressed in E. coli strain BL21(DE3)pLysS, and soluble protein in the cell lysate was purified to homogeneity by Immobilized Metal Affinity Chromatography using two 5 mL His-Select columns (GE Healthcare) linked in tandem, followed by Ion-Exchange Chromatography using a Mono Q HR 10/10 column (GE Healthcare) and Size-Exclusion Chromatography using a 16/60 preparative Superdex 75 column (GE Healthcare).
(§2) Various Beclin 1 BH3D-derived peptides, were chemically synthesized, and HPLC purified to >95% purity, with peptide purity confirmed by electrospray mass spectrometry (EZBioLabs/RSSynthesis/Protein Chemistry Technology Core at the University of Texas Southwestern Medical Center, Dallas).
(§3) Isothermal titration calorimetry was performed using a Nano ITC Low Volume (TA Instruments). For all ITC experiments, samples were loaded into separate dialysis cassettes, and dialyzed into ITC buffer. The ITC buffer for all experiments involving γHV68 M11 was 50 mM HEPES, pH 7.5, 250 mM NaCl and 2 mM β-mercaptoethanol and for human Bcl-XL was 25 mM HEPES, pH 7.5, 100 mM NaCl and 2 mM β-mercaptoethanol. ITC was performed at 25° C. with 25 injections of 2 μL each. Data were analyzed using NanoAnalyze Software (TA Instruments), with an independent model.

γHV68 M11 = molecular target: T2, γHV68 M11 (Murid herpesvirus 4, UniProt P89884); experiment: biochemical; assay type: binding, murine γHV68; settings: for ΔG, M11 / ΔH, M11 / ΔS, M11: ITC, 25° C., Table 1
T2 construct: γHV68 M11 residues 1-136 was expressed and purified; made in house
From the text: as §1, §2, §3

Bcl-XL = molecular target: T3, Bcl-XL (Homo sapiens, UniProt Q07817); experiment: Autophagy assay (GFP-LC3 puncta), Bcl-XL-mediated down-regulation of autophagy in MCF7 cells; assay type: cell-based; settings: cells that transiently express Bcl-XL in addition to Beclin 1; p=0.92294 treated versus untreated
T3 construct: expressed in transfected cells; host or cells: MCF7 human breast carcinoma cells
T3 sequence (Q07817 whole entry): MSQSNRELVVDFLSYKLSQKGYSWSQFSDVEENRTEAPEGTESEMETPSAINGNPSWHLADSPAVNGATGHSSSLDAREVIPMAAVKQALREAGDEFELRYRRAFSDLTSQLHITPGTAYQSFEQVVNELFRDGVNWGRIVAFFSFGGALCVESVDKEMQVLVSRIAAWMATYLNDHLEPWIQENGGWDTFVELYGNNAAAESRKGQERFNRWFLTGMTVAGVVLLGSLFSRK
Description: (§4) Quantification of the fluorescent autophagosomes in MCF7 cells co-transfected with GFP-LC3 (1.6 μg), Beclin 1 (1.2 μg), and either Bcl-XL (1.2 μg) or M11(1.2 μg) expression plasmids (4 μg plasmids total) was done using an inverted AxioObserver (Zeiss). Cells were cultured in DMEM with 10% fetal calf serum (growth medium) in 8-well slides (Millipore) and transfected at 80% confluence with Lipofectamine (Invitrogen). After transfection, cells were either starved overnight in Earle's balanced salt solution (EBSS, starvation medium), or grown in nutrient-rich media with the addition of 2×EAA (essential amino acids) and 2×NEAA (nonessential amino acids) (nutrient rich medium) in the absence or presence of 1 mM peptides if indicated. The number of GFP-LC3 puncta per GFP-LC3 positive cell was assessed by counting a minimum of 50 cells via Image ProPlus for duplicate samples per condition in three independent experiments. The significance of alterations in autophagy levels were determined by a two-tailed, heteroscedastic student's t-test, wherein p≦0.05 is considered significant.
(§5) Lastly, whether the DM peptide would specifically prevent M11-mediated down-regulation, but not Bcl-XL-mediated down-regulation of Beclin 1-dependent autophagy in cells was investigated. […]

M11 = molecular target: T4, M11 (Murid herpesvirus 4, UniProt P89884); experiment: Autophagy assay (GFP-LC3 puncta), M11-mediated down-regulation of autophagy in MCF7 cells; assay type: cell-based, murine γHV68; settings: cells that transiently express M11 in addition to Beclin 1; p=0.0010 treated versus untreated
T4 construct: expressed in transfected cells; host or cells: MCF7 human breast carcinoma cells
T4 sequence (P89884 whole entry, looked up): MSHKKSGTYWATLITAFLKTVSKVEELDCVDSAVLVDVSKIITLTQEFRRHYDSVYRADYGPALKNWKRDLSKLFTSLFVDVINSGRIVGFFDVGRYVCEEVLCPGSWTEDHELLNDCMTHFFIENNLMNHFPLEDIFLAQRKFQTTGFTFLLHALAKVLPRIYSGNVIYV
Description: as §4, §5

MCF7 cells = experiment: Autophagy assay (GFP-LC3 puncta) in MCF7 cells without Bcl-XL or M11; assay type: cell-based, human
Description: as §4, §5

T1 sequence (Q07817 1-208 N52D/N66D): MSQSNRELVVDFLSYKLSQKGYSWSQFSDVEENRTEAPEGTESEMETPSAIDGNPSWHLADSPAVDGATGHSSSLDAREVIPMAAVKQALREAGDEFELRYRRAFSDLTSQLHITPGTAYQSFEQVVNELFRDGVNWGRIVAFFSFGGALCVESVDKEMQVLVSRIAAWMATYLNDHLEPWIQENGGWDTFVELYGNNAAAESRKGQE

| Substance | binding to Bcl-XL (in words) (human Bcl-XL) | Kd (γHV68 M11) | ΔG, M11 (γHV68 M11) | ΔH, M11 (γHV68 M11) | ΔS, M11 (γHV68 M11) | fold better binding to M11 compared to the G120E peptide (γHV68 M11; relative to G120E peptide) | fold weaker binding to M11 compared to WT (γHV68 M11; relative to WT BH3D) | ΔG, Bcl-XL (human Bcl-XL; 25° C., Table 1) | ΔH, Bcl-XL (human Bcl-XL; 25° C., Table 1) | ΔS, Bcl-XL (human Bcl-XL; 25° C., Table 1) | Kd (human Bcl-XL; 25° C., Table 1, cell "No" wraps to "Binding" in the next grid row (= No Binding)) | TΔSapp for binding to M11, fold lower than for binding to Bcl-XL (γHV68 M11; M11 versus Bcl-XL) | ΔHapp for binding to M11, fold higher than for binding to Bcl-XL (γHV68 M11; M11 versus Bcl-XL) | effect on autophagy compared to untreated cells (Bcl-XL) | autophagy levels compared to untreated cells (M11) | levels of autophagy (MCF7 cells; MCF7 cells, nutrient-rich or starvation conditions, peptide treatment) | autophagy levels relative to untreated cells (MCF7 cells; cells that express Beclin 1, but not Bcl-XL or M11, p=0.03383 treated versus untreated) |
| --- | --- | --- | --- | --- | --- | --- | --- | --- | --- | --- | --- | --- | --- | --- | --- | --- | --- |
| GSGTMENLSRRLKVTEALFDIMSGQT [G120E + D121A] | does not bind | 6430 ± 150 nM | -7.079 ± 0.014 kcal/mol | -14.9 ± 0.65 kcal/mol | −109.81 ± 9.28 J/K · mol | ~5.7 fold | ~4.7 fold | – | – | – | – | – | – | – | – | – | – |
| GSGTMENLSRRLKVTGDLFDIMSGQT [WT, reference compound] | – | 1380 ± 410 nM | -8.009 ± 0.17 kcal/mol | -16.96 ± 1.53 kcal/mol | −125.72 ± 22.53 J/K · mol | – | – | -7.787 ± 0.055 kcal/mol | -10.41 ± 0.344 kcal/mol | −36.89 ± 4.53 J/K · mol | 1950 ± 190 nM | ~4 fold | ~2 fold | – | – | – | – |
| TAT-DM peptide: HIV-1 TAT protein transduction domain attached via a diglycine linker to the N-terminus of the DM peptide (YGRKKRRQRRRGGGSGTMENLSRRLKVTEALFDIMSGQT) | – | – | – | – | – | – | – | – | – | – | – | – | – | insignificant effect | markedly increases autophagy levels | did not increase levels of autophagy | only a slight elevation in autophagy levels |
